Target: T1, recombinant human FAAH (rhFAAH) (Homo sapiens, UniProt O00519)
T1 construct: purchased Cayman Chemical (Ann Arbor, MI, USA)
T1 sequence (O00519 1-579): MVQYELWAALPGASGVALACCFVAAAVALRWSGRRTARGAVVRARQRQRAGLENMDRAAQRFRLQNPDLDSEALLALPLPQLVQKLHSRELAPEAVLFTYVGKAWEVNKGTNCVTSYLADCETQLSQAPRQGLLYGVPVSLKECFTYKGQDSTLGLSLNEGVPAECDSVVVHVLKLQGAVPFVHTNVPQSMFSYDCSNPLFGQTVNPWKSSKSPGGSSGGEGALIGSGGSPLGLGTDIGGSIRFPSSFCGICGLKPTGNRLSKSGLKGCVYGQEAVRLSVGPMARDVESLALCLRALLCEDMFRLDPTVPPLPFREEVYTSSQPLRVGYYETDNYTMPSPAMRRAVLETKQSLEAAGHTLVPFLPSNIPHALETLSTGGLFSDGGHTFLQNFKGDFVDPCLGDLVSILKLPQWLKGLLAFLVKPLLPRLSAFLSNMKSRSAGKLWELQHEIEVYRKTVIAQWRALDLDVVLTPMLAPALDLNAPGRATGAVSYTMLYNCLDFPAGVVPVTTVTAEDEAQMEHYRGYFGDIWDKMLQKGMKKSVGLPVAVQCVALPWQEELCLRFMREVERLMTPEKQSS
Assay: FAAH substrate evaluation (acid metabolite formation)
Assay type: biochemical
Settings: 0.5 ng/L rhFAAH, 1 μM test compound, Tris-EDTA buffer pH 8.0, room temperature, 0-60 minutes
Method: Purified recombinant human FAAH (rhFAAH) was purchased from Cayman Chemical (Ann Arbor, MI, USA). The total volume for each incubation was 400 μL containing a final 0.5 ng/L rhFAAH, 1 μM test compound, 1.25% ethanol or 1 μM PF-3845 (FAAH inhibitor), and 0.1% bovine serum albumin in Tris-EDTA buffer at pH 8.0). The positive control was LL-341001. The incubation was conducted at the room temperature. At 0, 5, 15, 30 and 60 minutes, an aliquot of 30 μL reaction mixtures was removed and mixed with 300 μL acetonitrile containing 5 ng/mL terfenadine and 10 ng/mL tolbutamide as internal standards to quench the reaction. The resulting mixture was centrifuged at 4000 rpm, 4° C. for 15 minutes, and 100 μL supernatant was ready for LC-MS/MS analysis to measure the formation of acid metabolite.
Acquity Ultra Performance LC system from Waters was used for sample analysis. The chromatography was performed on a reverse phase Kinetex 2.6 μm C18 column, 2.1×30 mm, 100 Å. The mobile phase A comprised of 0.1% formic acid in water and mobile phase B comprised of 0.1% formic acid in acetonitrile with a 2-min run time at the flow rate of 0.8 mL/min for the acid metabolite from positive control or a 1.5 min run time at the flow rate of 0.9 mL/min for the acid metabolite of test compounds. The mass spectrometer (API-5500 and API Q Trap 4000 Applied Biosystems/MDS SCIEX Instruments, Framingham, MA, USA) was operated under ESI positive or negative ion MRM mode.
The formation of acid metabolite was monitored and quantified using one calibration point of 1 μM. The observed rate constant (ke) for the acid metabolite formation was calculated by plotting the metabolite concentration versus time of incubation with the slope being ke and is shown in Table 2.

ke (observed rate constant for the acid metabolite formation)	Structure (SMILES)
A (ke is more than or equal to 1.0)	Cc1c(C=CC(=O)Nc2ccncc2)ccc(OCc2cc(Cl)cc3c2OC(C)(C)C3)c1C [Compound 7, 3-(4-((5-chloro-2,2-dimethyl-2,3-dihydrobenzofuran-7-yl)methoxy)-2,3-dimethylphenyl)-N-(pyridin-4-yl)propenamide]
A (ke is more than or equal to 1.0)	Cc1c(C=CC(N)=O)ccc(OCc2cc(Cl)cc3c2OC(C)(C)C3)c1C [Compound 9, 3-(4-((5-chloro-2,2-dimethyl-2,3-dihydrobenzofuran-7-yl)methoxy)-2,3-dimethylphenyl)propenamide]
A (ke is more than or equal to 1.0)	CNC(=O)CCc1ccc(OCc2cc(Cl)cc3c2OC(C)(C)C3)c(C)c1C [Compound 10, 3-(4-((5-chloro-2,2-dimethyl-2,3-dihydrobenzofuran-7-yl)methoxy)-2,3-dimethylphenyl)-N-methylpropanamide]
A (ke is more than or equal to 1.0)	Cc1c(C=CC(=O)NCCO)ccc(OCc2cc(Cl)cc3c2OC(C)(C)C3)c1C [Compound 11, 3-(4-((5-chloro-2,2-dimethyl-2,3-dihydrobenzofuran-7-yl)methoxy)-2,3-dimethylphenyl)-N-(2-hydroxyethyl)propenamide]
C (ke is less than 0.1 and more than 0)	CCCCC[C@H](O)CC[C@@H]1[C@H]2Cc3cccc(OCC(=O)NC4CC4)c3C[C@H]2C[C@H]1O [Compound 12]
D (ke is 0)	CCCCC[C@H](O)CC[C@@H]1[C@H]2Cc3cccc(OCC(=O)NC)c3C[C@H]2C[C@H]1O [Compound 13]
D (ke is 0)	O=C(NC1CC1)c1ccc2nc(-c3cc(Cl)cc(Cl)c3)oc2c1 [Compound 15]
D (ke is 0)	CNC(=O)c1ccc2nc(-c3cc(Cl)cc(Cl)c3)oc2c1 [Compound 16]
A (ke is more than or equal to 1.0)	CCc1cc(/C(C)=N/OCc2ccc(C3CCCCC3)c(C(F)(F)F)c2)ccc1CN1CC(C(=O)NCCO)C1 [Compound 17]
D (ke is 0)	CCc1cc(/C(C)=N/OCc2ccc(C3CCCCC3)c(C(F)(F)F)c2)ccc1CN1CC(C(N)=O)C1 [Compound 19]
D (ke is 0)	CNC(=O)C[C@H]1CCc2c1[nH]c1ccc(OCc3ccc(C4CCCC4)c(C(F)(F)F)c3)cc21 [Compound 21]
D (ke is 0)	CCc1cc(/C(C)=N/OCc2ccc(C3CCCCC3)c(C(F)(F)F)c2)ccc1CN1CC(C(=O)NC2CC2F)C1 (stereo not shown) [Compound 28]
D (ke is 0)	Cc1noc(-c2ccc(NC(=O)CCC(=O)NC3CC3)cc2F)c1NC(=O)O[C@H](C)c1ccccc1Cl [Compound 31]
C (ke is less than 0.1 and more than 0)	O=C(C[C@H]1CCc2c1[nH]c1ccc(OCc3ccc(C4CCCC4)c(C(F)(F)F)c3)cc21)NC1CC1F (stereo partly shown) [Compound 32]
D (ke is 0)	Cc1noc(-c2ccc(CSCCC(=O)NC3CC3)cc2)c1NC(=O)OC(C)c1ccccc1Cl (stereo not shown) [Compound 33]
D (ke is 0)	Cc1noc(NC(=O)CCSCc2ccc(-c3onc(C)c3NC(=O)OC(C)c3ccccc3Cl)cc2)c1C (stereo not shown) [Compound 34]
D (ke is 0)	Cc1n[nH]c(C)c1CCCOc1cc(C(N)=O)ccc1F [Compound 36]
A (ke is more than or equal to 1.0)	CCc1cc(/C(C)=N/OCc2ccc(C3CCCCC3)c(C(F)(F)F)c2)ccc1CN1CC(C(=O)Nc2ccncc2)C1 [Compound 38]
C (ke is less than 0.1 and more than 0)	Cc1noc(-c2ccc(CSCCC(=O)N[C@@H]3C[C@H]3F)cc2)c1NC(=O)OC(C)c1ccccc1Cl (stereo partly shown) [Compound 40]

Structure (SMILES)	ke (observed rate constant for the acid metabolite formation)
Cc1c(C=CC(=O)Nc2cccnn2)ccc(OCc2cc(Cl)cc3c2OC(C)(C)C3)c1C [Compound 2, 3-(4-((5-chloro-2,2-dimethyl-2,3-dihydrobenzofuran-7-yl)methoxy)-2,3-dimethylphenyl)-N-(pyridazin-3-yl)propenamide]	B (ke is less than 1.0 and more than or equal to 0.1)
Cc1c(CCC(=O)NC2CC2)ccc(OCc2cc(Cl)cc3c2OC(C)(C)C3)c1C [Compound 3, 3-(4-((5-chloro-2,2-dimethyl-2,3-dihydrobenzofuran-7-yl)methoxy)-2,3-dimethylphenyl)-N-cyclopropylpropanamide]	B (ke is less than 1.0 and more than or equal to 0.1)
Cc1c(C=CC(=O)N[C@@H]2C[C@H]2F)ccc(OCc2cc(Cl)cc3c2OC(C)(C)C3)c1C [Compound 4, 3-(4-((5-chloro-2,2-dimethyl-2,3-dihydrobenzofuran-7-yl)methoxy)-2,3-dimethylphenyl)-N-((1R,2R)-2-fluorocyclopropyl)propenamide]	B (ke is less than 1.0 and more than or equal to 0.1)
Cc1c(C=CC(=O)N[C@@H]2C[C@@H]2F)ccc(OCc2cc(Cl)cc3c2OC(C)(C)C3)c1C [Compound 5, 3-(4-((5-chloro-2,2-dimethyl-2,3-dihydrobenzofuran-7-yl)methoxy)-2,3-dimethylphenyl)-N-((1R,2S)-2-fluorocyclopropyl)propenamide]	B (ke is less than 1.0 and more than or equal to 0.1)
Cc1c(C=CC(=O)NCCCF)ccc(OCc2cc(Cl)cc3c2OC(C)(C)C3)c1C [Compound 6, 3-(4-((5-chloro-2,2-dimethyl-2,3-dihydrobenzofuran-7-yl)methoxy)-2,3-dimethylphenyl)-N-(3-fluoropropyl)propenamide]	B (ke is less than 1.0 and more than or equal to 0.1)
CCCCC[C@H](O)CC[C@@H]1[C@H]2Cc3cccc(OCC(N)=O)c3C[C@H]2C[C@H]1O [Compound 14]	B (ke is less than 1.0 and more than or equal to 0.1)
CCc1cc(/C(C)=N/OCc2ccc(C3CCCCC3)c(C(F)(F)F)c2)ccc1CN1CC(C(=O)NC)C1 [Compound 18]	B (ke is less than 1.0 and more than or equal to 0.1)
CNC(=O)CCSCc1ccc(-c2onc(C)c2NC(=O)O[C@H](C)c2ccccc2Cl)cc1 [Compound 23]	B (ke is less than 1.0 and more than or equal to 0.1)
Cc1noc(-c2ccc(CSCCC(N)=O)cc2)c1NC(=O)O[C@H](C)c1ccccc1Cl [Compound 24]	B (ke is less than 1.0 and more than or equal to 0.1)
COc1ccc(NC(=O)c2ccc(F)c(OCCCc3c(C)n[nH]c3C)c2)cn1 [Compound 29]	B (ke is less than 1.0 and more than or equal to 0.1)
Cc1noc(-c2ccc(NC(=O)CCC(=O)NCCCF)cc2F)c1NC(=O)O[C@H](C)c1ccccc1Cl [Compound 30]	B (ke is less than 1.0 and more than or equal to 0.1)
Cc1c(CCC(=O)Nc2ccncc2)ccc(OCc2cc(Cl)cc3c2OC(C)(C)C3)c1C [Compound 35]	B (ke is less than 1.0 and more than or equal to 0.1)
COc1ccc(NC(=O)c2ccc3nc(-c4cc(Cl)cc(Cl)c4)oc3c2)nn1 [Compound 37]	B (ke is less than 1.0 and more than or equal to 0.1)
CCc1cc(/C(C)=N/OCc2ccc(C3CCCCC3)c(C(F)(F)F)c2)ccc1CN1CC(C(=O)NCCCF)C1 [Compound 39]	B (ke is less than 1.0 and more than or equal to 0.1)
Cc1noc(-c2ccc(CSCCC(=O)Nc3cccnn3)cc2)c1NC(=O)O[C@H](C)c1ccccc1Cl [Compound 41]	B (ke is less than 1.0 and more than or equal to 0.1)

From US20240261414A1, “FATTY ACID AMIDE HYDROLASE (FAAH) CLEAVABLE PRODRUGS OF BRAIN TARGETING ACTIVES AND COMBINATION WITH PERIPHERALLY RESTRICTED FAAH INHIBITORS” (Autobahn Therapeutics, Inc., priority 2021, published 2024)
